Test results: patent US8129427B2, “2-phenylethylamino derivatives as calcium and/or sodium channel modulators” (Newron Pharmaceuticals S.p.A., priority 2005, dated 2012)
Counter-ions that a name gives are not always drawn. Like-named read-outs stand apart in the source and are kept apart here.

How the values were obtained:
N-type calcium channels = N-type calcium channels (Homo sapiens, UniProt Q00975); assay: N-type calcium channel influx assay (fluorescence); format: cell-based
L-type calcium channels = format: cell-based, mouse; settings: AtT20/D16v-F2 cells, ω-conotoxin 1 μM, 100 mM KCl depolarization
MAO-B = target: T1, MAO-B (Rattus norvegicus, UniProt P19643); assay: In vitro MAO-B enzyme activity radioenzymatic assay; format: biochemical; settings: 100 μM compound, rat brain crude mitochondrial fraction, 14C-PEA substrate
T1 construct: from tissue; host or cells: rat brain crude mitochondrial fraction
T1 sequence (P19643 1-520): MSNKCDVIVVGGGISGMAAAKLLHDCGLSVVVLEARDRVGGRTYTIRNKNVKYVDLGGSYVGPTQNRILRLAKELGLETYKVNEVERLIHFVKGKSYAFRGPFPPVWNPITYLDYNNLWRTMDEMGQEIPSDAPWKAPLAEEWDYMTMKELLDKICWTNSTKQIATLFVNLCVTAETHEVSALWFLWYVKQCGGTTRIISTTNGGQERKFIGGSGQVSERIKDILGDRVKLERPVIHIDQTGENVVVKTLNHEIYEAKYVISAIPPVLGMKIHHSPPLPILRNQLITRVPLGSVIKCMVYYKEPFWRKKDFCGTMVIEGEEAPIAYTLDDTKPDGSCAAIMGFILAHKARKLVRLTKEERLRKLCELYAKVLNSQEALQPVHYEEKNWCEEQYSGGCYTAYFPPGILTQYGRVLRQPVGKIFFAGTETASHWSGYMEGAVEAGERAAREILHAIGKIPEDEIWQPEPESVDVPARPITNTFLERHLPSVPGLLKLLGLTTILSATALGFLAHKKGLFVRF
Protocol: Male Wistar rats (Harlan, Italy—175-200 g) were sacrificed under light anaesthesia and brains were rapidly removed and homogenized in 8 volumes of ice-cold 0.32 M sucrose buffer containing 0.1 M EDTA, pH 7.4. The crude homogenate was centrifuged at 2220 rpm for 10 minutes and the supernatant recovered. The pellet was homogenized and centrifuged again. The two supernatants were pooled and centrifuged at 9250 rpm for 10 minutes at +4° C. The pellet was resuspended in fresh buffer and centrifuged at 11250 rpm for 10 minutes at +4° C. The resulting pellet was stored at −80° C.
The enzyme activities were assessed with a radioenzymatic assay using the substrates ^14C-serotonin (5-HT) and ^14C-phenylethylamine (PEA) for MAO-A and MAO-B, respectively.
The mitochondrial pellet (500 μg protein) was resuspended in 0.1 M phosphate buffer (pH 7.4). 500 μl of the suspension were added to a 50 μl solution of the test compound or buffer, and incubated for 30 min at 37° C. (preincubation) then the substrate (50 μl) was added. The incubation was carried out for 30 minutes at 37° C. (^14C-5-HT, 5 μM) or for 10 minutes at 37° C. (^14C-PEA, 0.5 μM).
The reaction was stopped by adding 0.2 ml of 37% HCl or perchloric acid. After centrifugation, the deaminated metabolites were extracted with 3 ml of diethyl ether (5-HT) or toluene (PEA) and the radioactive organic phase was measured by liquid scintillation spectrometry at 90% efficiency. The amount of neutral and/or acidic metabolites formed as a result of MAO activity was obtained by measuring the radioactivity of the eluate.
The activity of MAO in the sample, corresponding to a percentage of radioactivity compared with the control activity in the absence of the inhibitor, was expressed as nmoles of substrate transformed/mg protein/min.

[1] = target: recombinant human N-type channels, h α1B (hCav2.2)+β1b+α2δ-1 subunits (Homo sapiens, UniProt Q00975); assay: Patch clamp studies of calcium currents inhibition in HEK293 cells; format: cell-based; settings: tonic block, preconditioning −50/−55 mV (half maximal steady-state inactivated condition); read-out: IC50 (Vhalf)
Chain of recombinant human N-type channels, h α1B (hCav2.2)+β1b+α2δ-1 subunits (Q00975 whole entry): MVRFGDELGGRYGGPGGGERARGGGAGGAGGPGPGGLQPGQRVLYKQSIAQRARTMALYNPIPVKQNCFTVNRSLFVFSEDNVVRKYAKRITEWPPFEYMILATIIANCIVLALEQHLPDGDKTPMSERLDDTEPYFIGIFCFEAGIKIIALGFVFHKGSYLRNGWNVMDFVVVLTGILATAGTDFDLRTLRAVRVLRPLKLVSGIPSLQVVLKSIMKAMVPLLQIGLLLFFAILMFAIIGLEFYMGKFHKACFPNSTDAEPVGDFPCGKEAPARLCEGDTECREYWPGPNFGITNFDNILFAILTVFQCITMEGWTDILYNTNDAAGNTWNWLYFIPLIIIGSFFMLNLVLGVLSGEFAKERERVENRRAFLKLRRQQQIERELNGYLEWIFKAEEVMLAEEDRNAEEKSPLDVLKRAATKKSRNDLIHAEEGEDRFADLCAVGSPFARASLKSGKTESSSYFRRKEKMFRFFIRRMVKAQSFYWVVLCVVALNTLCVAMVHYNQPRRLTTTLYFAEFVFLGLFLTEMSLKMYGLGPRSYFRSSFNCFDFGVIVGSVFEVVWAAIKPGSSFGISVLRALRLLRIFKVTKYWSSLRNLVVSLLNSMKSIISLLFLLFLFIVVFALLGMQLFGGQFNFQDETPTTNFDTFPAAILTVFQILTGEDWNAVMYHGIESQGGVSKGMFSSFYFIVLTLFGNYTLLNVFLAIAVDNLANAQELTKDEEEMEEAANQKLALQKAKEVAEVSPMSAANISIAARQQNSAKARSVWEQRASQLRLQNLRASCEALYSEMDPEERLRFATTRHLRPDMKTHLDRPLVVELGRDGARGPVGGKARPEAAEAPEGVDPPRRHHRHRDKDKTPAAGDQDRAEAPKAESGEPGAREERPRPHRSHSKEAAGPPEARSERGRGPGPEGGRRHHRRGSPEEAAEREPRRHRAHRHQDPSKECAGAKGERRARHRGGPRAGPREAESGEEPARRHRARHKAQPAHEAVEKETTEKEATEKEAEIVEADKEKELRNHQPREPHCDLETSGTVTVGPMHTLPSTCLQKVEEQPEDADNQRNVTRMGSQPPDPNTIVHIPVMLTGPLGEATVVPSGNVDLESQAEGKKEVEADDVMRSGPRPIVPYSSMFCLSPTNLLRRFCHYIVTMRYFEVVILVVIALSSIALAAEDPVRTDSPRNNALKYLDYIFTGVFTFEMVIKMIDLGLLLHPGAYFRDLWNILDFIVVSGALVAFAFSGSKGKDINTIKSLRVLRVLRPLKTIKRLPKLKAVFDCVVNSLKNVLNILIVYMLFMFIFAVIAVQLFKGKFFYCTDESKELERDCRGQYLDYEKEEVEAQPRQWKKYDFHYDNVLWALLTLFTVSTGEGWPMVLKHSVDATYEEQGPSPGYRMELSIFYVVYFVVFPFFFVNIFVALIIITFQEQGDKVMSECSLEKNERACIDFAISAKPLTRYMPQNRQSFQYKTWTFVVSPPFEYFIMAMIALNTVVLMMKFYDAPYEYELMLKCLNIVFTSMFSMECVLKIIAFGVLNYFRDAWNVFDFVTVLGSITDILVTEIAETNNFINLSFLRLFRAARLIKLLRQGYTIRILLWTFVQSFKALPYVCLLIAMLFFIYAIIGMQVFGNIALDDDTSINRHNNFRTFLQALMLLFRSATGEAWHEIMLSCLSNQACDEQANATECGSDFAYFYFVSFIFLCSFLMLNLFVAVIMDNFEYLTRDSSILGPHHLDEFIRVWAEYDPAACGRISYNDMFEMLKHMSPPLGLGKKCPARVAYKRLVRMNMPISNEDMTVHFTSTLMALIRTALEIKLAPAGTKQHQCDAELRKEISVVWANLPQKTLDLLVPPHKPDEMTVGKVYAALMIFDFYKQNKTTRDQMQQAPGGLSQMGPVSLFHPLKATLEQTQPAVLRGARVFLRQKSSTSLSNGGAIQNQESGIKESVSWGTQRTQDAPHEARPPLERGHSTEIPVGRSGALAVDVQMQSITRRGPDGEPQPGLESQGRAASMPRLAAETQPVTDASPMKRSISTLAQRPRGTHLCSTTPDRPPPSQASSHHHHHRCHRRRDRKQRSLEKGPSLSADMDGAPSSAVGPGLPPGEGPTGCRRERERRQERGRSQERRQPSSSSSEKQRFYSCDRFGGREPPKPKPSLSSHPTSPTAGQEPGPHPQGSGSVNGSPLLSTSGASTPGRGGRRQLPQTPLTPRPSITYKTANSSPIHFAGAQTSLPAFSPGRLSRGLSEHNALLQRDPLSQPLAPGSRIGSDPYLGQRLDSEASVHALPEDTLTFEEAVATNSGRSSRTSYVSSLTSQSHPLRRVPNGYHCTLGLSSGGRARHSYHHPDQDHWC
Chain of recombinant human N-type channels, h α1B (hCav2.2)+β1b+α2δ-1 subunits (Q02641 whole entry partner): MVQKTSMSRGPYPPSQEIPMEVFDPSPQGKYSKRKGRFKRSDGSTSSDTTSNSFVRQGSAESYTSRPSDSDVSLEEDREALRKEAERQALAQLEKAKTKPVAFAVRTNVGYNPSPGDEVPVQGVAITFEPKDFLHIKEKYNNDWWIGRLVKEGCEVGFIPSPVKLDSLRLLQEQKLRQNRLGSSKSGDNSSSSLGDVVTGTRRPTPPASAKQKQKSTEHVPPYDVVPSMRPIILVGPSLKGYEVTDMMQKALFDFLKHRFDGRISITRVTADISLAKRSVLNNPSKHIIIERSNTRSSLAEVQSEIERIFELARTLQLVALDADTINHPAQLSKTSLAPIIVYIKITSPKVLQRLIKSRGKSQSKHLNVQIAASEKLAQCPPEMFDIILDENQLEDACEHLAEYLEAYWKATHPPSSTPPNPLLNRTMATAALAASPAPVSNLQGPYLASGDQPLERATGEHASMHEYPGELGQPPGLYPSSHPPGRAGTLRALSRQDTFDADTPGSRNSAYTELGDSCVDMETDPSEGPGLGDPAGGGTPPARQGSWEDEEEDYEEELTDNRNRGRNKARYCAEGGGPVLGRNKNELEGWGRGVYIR
Chain of recombinant human N-type channels, h α1B (hCav2.2)+β1b+α2δ-1 subunits (P54289 25-956 partner limits assumed): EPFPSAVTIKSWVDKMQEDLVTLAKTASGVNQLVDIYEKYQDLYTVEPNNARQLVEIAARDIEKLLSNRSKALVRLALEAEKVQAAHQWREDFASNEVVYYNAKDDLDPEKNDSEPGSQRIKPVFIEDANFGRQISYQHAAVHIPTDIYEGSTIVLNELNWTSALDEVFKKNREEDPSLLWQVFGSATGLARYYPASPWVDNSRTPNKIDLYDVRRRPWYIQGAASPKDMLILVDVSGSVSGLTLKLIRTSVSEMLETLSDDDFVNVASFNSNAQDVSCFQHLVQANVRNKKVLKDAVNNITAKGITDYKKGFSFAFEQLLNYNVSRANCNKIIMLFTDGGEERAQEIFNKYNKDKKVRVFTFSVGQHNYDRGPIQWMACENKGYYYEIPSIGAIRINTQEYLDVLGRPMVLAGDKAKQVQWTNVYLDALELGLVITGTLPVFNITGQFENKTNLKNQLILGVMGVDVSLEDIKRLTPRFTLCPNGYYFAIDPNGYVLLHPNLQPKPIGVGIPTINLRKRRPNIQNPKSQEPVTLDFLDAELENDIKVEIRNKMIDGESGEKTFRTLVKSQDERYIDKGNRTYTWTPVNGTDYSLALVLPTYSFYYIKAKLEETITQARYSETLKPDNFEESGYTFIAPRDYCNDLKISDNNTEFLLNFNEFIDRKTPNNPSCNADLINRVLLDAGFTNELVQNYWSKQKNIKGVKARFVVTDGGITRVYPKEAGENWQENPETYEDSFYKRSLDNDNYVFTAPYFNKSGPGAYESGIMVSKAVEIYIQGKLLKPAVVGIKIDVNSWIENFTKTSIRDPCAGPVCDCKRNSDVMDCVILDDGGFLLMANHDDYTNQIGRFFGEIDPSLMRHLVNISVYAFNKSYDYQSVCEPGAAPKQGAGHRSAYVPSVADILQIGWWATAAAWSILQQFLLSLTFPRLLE
Chain of recombinant human N-type channels, h α1B (hCav2.2)+β1b+α2δ-1 subunits (P54289 957-1103 partner limits assumed): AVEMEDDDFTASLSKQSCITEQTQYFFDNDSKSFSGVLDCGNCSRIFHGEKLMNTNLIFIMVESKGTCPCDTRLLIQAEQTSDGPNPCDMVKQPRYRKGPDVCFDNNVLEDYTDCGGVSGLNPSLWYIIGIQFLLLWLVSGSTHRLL
Protocol: Functional inhibition of the N-type Ca currents was studied using whole cell patch clamp methods (Hamill O. P., Marty A., Neher E., Sakmann B., Sigworth F. J. Pflugers Arch. (1981) 391: 85-100) on HEK293 cells expressing recombinant human N-type channels, obtained after transient transfection of h α1B (hCav2.2)+β1b+α2δ-1 subunits.
Membrane currents were recorded and filtered at 5 kHz with an Axon Axopatch 200B amplifier and digitized with an Axon Digidata 1322A (Axon Instruments, CA, USA). Voltage clamping of membrane potentials and data acquisition were controlled online with Axon pClamp8 software. Measuring and reference electrodes were AgCl—Ag electrodes. Cells had initial seal resistances of >1 GΩ and access resistances of 4.2±0.2 MΩ. Cells were continuously superfused with extracellular solutions using a Biologic RSC-200.
For calcium currents recording the control bath solution contained (mM): Choline chloride (70), MgCl2 (1), BaCl2 (20), TEA.Cl (50), Hepes (10), Glucose (10). Internal pipette solution consisted of (mM): CsCl (140), EGTA (10), MgCl2 (2), Hepes (10), MgATP (1), GTP Tris (0.3).
Compounds were dissolved as 20 mM stock solutions in DMSO and then diluted to the final concentration in the external solutions.
A two-step protocol was used to determine the voltage dependence of the block:
N-type current was activated by a 600 ms step pulse to +10 mV (test pulse) from a 5000 ms preconditioning potential of −110 mV (resting condition) or −50/−55 mV (half maximal steady-state inactivated condition), respectively.
The amplitude of calcium current peaks evoked by the respective test pulses at a frequency of 0.06 Hz were measured before and after exposure to the test substance. Tonic block of currents was calculated as the difference between the peak calcium current measured at the end of a stabilization period in the control external bath solution and peak currents measured at the end of test substance perfusion period (when steady state is reached) divided by control peaks. […]

TTXs sodium channels = assay: TTXs-sodium channel influx assay (membrane potential fluorescence); format: cell-based, rat; settings: ND7/23 cells, veratridine 100 μM
Protocol: ND7/23 rat dorsal root ganglion-derived cell line endogenously expresses a mixed population of TTXs sodium channels (such as Nav1.3, Nav1.2, Nav1.1, Nav1.6). These cells lack of TTXr sodium channels as shown by the absence of their respective transcripts. ND7/23 cells were grown in DMEM supplemented with 10% FBS and 1 mM sodium piruvate.
The cells were seeded at 50,000 cells/well on 96 poly-L-lysine-coated plates and further incubated for 18-24 h before use.
The Membrane Potential Kit Assay (Molecular Devices), based on a negatively charged fluorescent dye able to monitor changes in membrane potential caused by the sodium influx due to the channel opening, was used for the assay.
Cells were incubated with the dye loading for 30 minutes at 25° C. Then, 100 nM of the toxin Anemonia sulcata (used as enhancer of the channel opener response) alone or in the presence of TTX (as reference standard) or test compound were added for further 15 minutes.
The fluorescence (excitation: 530 nm, emission: 565 nm wavelength) was measured before and after (40-45 s) the automated injection of the sodium channel opener veratridine (100 μM) using a Victor plate reader (Perkin Elmer).
The inhibition curves were calculated from 5 concentrations, each in triplicate, and the IC50 determined using a linear regression analysis.

[2] = differentiated IMR32 cells, nifedipine 1 μM, 100 mM KCl depolarization, read-out: IC50

Chain of N-type calcium channels (Q00975 whole entry): as the sequence (Q00975 whole entry) above
Chain of N-type calcium channels (Q02641 whole entry partner): as the sequence (Q02641 whole entry partner) above
Chain of N-type calcium channels (P54289 25-956 partner limits assumed): as the sequence (P54289 25-956 partner limits assumed) above
Chain of N-type calcium channels (P54289 957-1103 partner limits assumed): as the sequence (P54289 957-1103 partner limits assumed) above

SMILES	IC50 (N-type calcium channels; [2]) [µM]	IC50 (L-type calcium channels) [µM]	inhibition at 100 µM (MAO-B) [%]	IC50 [1] [µM]	IC50 (TTXs sodium channels) [µM]	IC50 (N-type calcium channels) [µM]
CNC(=O)CN(CCc1ccc(OCc2cccc(F)c2)c(OC)c1)CC(C)C [Example 2, 2-[[2-[4-(3-Fluoro-benzyloxy)-3-methoxy-phenyl]-ethyl]-isobutylamino]-N-methyl-acetamide hydrochloride]	4.8	3.1	53			
CNC(=O)CN(CCc1ccc(OCc2cccc(F)c2)c(OC)c1)CC1CCOC1 (stereo not shown) [Example 7, 2-[[2-[4-(3-Fluoro-benzyloxy)-3-methoxy-phenyl]-ethyl]-(tetrahydrofuran-3-ylmethyl)amino]-N-methyl-acetamide hydrochloride]				11		
CNC(=O)CN(CCc1ccc(OCc2cccc(F)c2)c(OC)c1)Cc1ccoc1 [Example 10, 2-[[2-[4-(3-Fluoro-benzyloxy)-3-methoxy-phenyl]-ethyl]-(furan-3-ylmethyl)amino]-N-methyl-acetamide hydrochloride]		1.7				
CNC(=O)CN(CCc1ccc(OCc2cccc(F)c2)c(OC)c1)Cc1ccc(OC)nc1 [Example 14, 2-[[2-[4-(3-Fluoro-benzyloxy)-3-methoxy-phenyl]-ethyl]-(6-methoxy-pyridin-3-ylmethyl)amino]-N-methyl-acetamide]					2.9	
COc1cc(CCN(CC(=O)N(C)C)Cc2ccccc2)ccc1OCc1cccc(F)c1 [Example 20, 2-[[2-[4-(3-Fluoro-benzyloxy)-3-methoxy-phenyl]-ethyl]-benzylamino]-N,N-dimethyl-acetamide hydrochloride]		4.6	3			1.1
CNC(=O)[C@H](CC(C)C)NCCc1ccc(OCc2cccc(F)c2)c(OC)c1 [Example 31, (S)-2-[2-[4-(3-Fluoro-benzyloxy)-3-methoxy-phenyl]-ethylamino]-N-methyl-4-methyl-valeramide]		1				
COc1cc(CCNC(C(=O)N(C)C)c2ccccc2)ccc1OCc1cccc(F)c1 (stereo not shown) [Example 32, 2-[2-[4-(3-Fluoro-benzyloxy)-3-methoxy-phenyl]-ethylamino]-2-phenyl-N,N-dimethyl-acetamide hydrochloride]			0			
COc1cc(CCNC(C(=O)N2CCOCC2)c2ccccc2)ccc1OCc1cccc(F)c1 (stereo not shown) [Example 33, 2-[2-[4-(3-Fluoro-benzyloxy)-3-methoxy-phenyl]-ethylamino]-1-(morpholin-4-yl)-2-phenyl-ethanone hydrochloride]	6	7.1	0		2.1	
CCNC(=O)CN(CCc1ccc(OCc2cccc(F)c2)c(OC)c1)Cc1ccccc1 [Example 37, 2-[[2-[4-(3-Fluoro-benzyloxy)-3-methoxy-phenyl]-ethyl]-benzylamino]-N-ethyl-acetamide hydrochloride]			4		1.2	
COc1cc(CCN(CC(=O)N2CCCC2)Cc2ccccc2)ccc1OCc1cccc(F)c1 [Example 40, 2-[[2-[4-(3-Fluoro-benzyloxy)-3-methoxy-phenyl]-ethyl]-benzylamino]-1-(pyrrolidin-1-yl)-ethanone hydrochloride]	2.2	1.6	11			
COc1cc(CCN(CC(=O)NCC(C)(C)N)Cc2ccccc2)ccc1OCc1cccc(F)c1 [Example 42, 2-[[2-[4-(3-Fluoro-benzyloxy)-3-methoxy-phenyl]-ethyl]-benzylamino]-N-(2-amino-2-methyl-propyl)-acetamide hydrochloride]	2.6	2.4	32			
COc1cc(CCN(CC(=O)NCCN(C)C)Cc2ccccc2)ccc1OCc1cccc(F)c1 [Example 43, 2-[[2-[4-(3-Fluoro-benzyloxy)-3-methoxy-phenyl]-ethyl]-benzylamino]-N-(2-dimethylamino-ethyl)-acetamide hydrochloride]	1.9	1.2	33			
COc1cc(CCN(CC(=O)NCCC2CCCN2C)Cc2ccccc2)ccc1OCc1cccc(F)c1 (stereo not shown) [Example 44, 2-[[2-[4-(3-Fluoro-benzyloxy)-3-methoxy-phenyl]-ethyl]-benzylamino]-N-[2-(1-methyl-pyrrolidin-2-yl)-ethyl]-acetamide hydrochloride]			39			
CCNC(=O)CN(CCc1ccc(OCc2cccc(F)c2)c(OC)c1)CC1CC1 [Example 47, 2-[[2-[4-(3-Fluoro-benzyloxy)-3-methoxy-phenyl]-ethyl]-(cyclopropylmethyl)amino]-N-ethyl-acetamide hydrochloride]		1.8				
CN(C)CCNC(=O)CN(CCc1cccc(OCc2cccc(F)c2)c1)Cc1ccco1 [Example 71, 2-[[2-[3-(3-Fluoro-benzyloxy)-phenyl]-ethyl]-(furan-2-ylmethyl)amino]-N-(2-dimethylamino-ethyl)-acetamide dihydrochloride]	1.9	3.4	34			
CC(C)(N)CNC(=O)CN(CCc1cccc(OCc2cccc(F)c2)c1)Cc1ccco1 [Example 72, 2-[[2-[3-(3-Fluoro-benzyloxy)-phenyl]-ethyl]-(furan-2-ylmethy ° amino]-N-(2-amino-2-methyl-propyl)-acetamidedihydrochloride]	2.6	2.9	31			
